According to BindingDB's records for doi:10.1021/jm00039a015 (Abbott Laboratories, 1994):
Structures can show the parent of a compound that is named as a salt.

Molecular target: Platelet-activating factor receptor (Oryctolagus cuniculus)
Assay: Antagonist activity against platelet activating factor (PAF) receptor in rabbit platelet membranes using [3H]C18-PAF as radioligand

| Compound | Ki |
| --- | --- |
| CN(C)C(=O)n1cc(C(=O)[C@@H]2CSC(c3cccnc3)N2)c2ccc(-c3cccnc3)cc21 (stereo partly drawn) [6-Pyridin-3-yl-3-((R)-2-pyridin-3-yl-thiazolidine-4-carbonyl)-indole-1-carboxylic acid dimethylamide] | 40 nM |
| Cc1[nH]c2cc(OCc3ccccc3)ccc2c1C(=O)[C@@H]1CSC(c2cccnc2)N1 (stereo partly drawn) [(6-Benzyloxy-2-methyl-1H-indol-3-yl)-((R)-2-pyridin-3-yl-thiazolidin-4-yl)-methanone] | 16 nM |
| O=C(c1c[nH]c2cc(OCc3cccnc3)ccc12)[C@@H]1CSC(c2cccnc2)N1 (stereo partly drawn) [[6-(Pyridin-3-ylmethoxy)-1H-indol-3-yl]-((R)-2-pyridin-3-yl-thiazolidin-4-yl)-methanone] | 37 nM |
| CCn1cc(C(=O)[C@@H]2CSC(c3cccnc3)N2)c2ccccc21 (stereo partly drawn) [(1-Ethyl-1H-indol-3-yl)-((R)-2-pyridin-3-yl-thiazolidin-4-yl)-methanone] | 5.4 nM |
| CCS(=O)(=O)n1cc(C(=O)[C@@H]2CSC(c3cccnc3)N2)c2ccccc21 (stereo partly drawn) [(1-Ethanesulfonyl-1H-indol-3-yl)-((R)-2-pyridin-3-yl-thiazolidin-4-yl)-methanone] | 18 nM |
| O=C(C1CSC(c2cccnc2)N1)n1ccc2c(Cl)cccc21 (stereo not drawn) [(4-Chloro-indol-1-yl)-(2-pyridin-3-yl-thiazolidin-4-yl)-methanone] | 33 nM |
| O=C(c1c[nH]c2c(OCc3ccccc3)cccc12)[C@@H]1CSC(c2cccnc2)N1 (stereo partly drawn) [(7-Benzyloxy-1H-indol-3-yl)-((R)-2-pyridin-3-yl-thiazolidin-4-yl)-methanone; TFA] | 1.1 nM |
| O=C([C@@H]1CSC(c2cccnc2)N1)n1ccc2cccc(OCc3ccccc3)c21 (stereo partly drawn) [(7-Benzyloxy-indol-1-yl)-((R)-2-pyridin-3-yl-thiazolidin-4-yl)-methanone; compound with oxalic acid] | 385 nM |
| Cc1ccc2c(C(=O)[C@@H]3CSC(c4cccnc4)N3)c[nH]c2c1 (stereo partly drawn) [(6-Methyl-1H-indol-3-yl)-((R)-2-pyridin-3-yl-thiazolidin-4-yl)-methanone] | 3.4 nM |
| CN(C)C(=O)n1cc(C(=O)[C@@H]2CSC(c3cccnc3)N2)c2ccc(Br)cc21 (stereo partly drawn) [6-Bromo-3-((R)-2-pyridin-3-yl-thiazolidine-4-carbonyl)-indole-1-carboxylic acid dimethylamide] | 0.6 nM |
| O=C(Nc1cccc(Cl)c1)c1ccn2c1CSC2c1cccnc1 (stereo not drawn) [RP-52770] | 274 nM |
| COc1cc2[nH]cc(C(=O)[C@@H]3CSC(c4cccnc4)N3)c2cc1OC (stereo partly drawn) [(5,6-Dimethoxy-1H-indol-3-yl)-((R)-2-pyridin-3-yl-thiazolidin-4-yl)-methanone] | 87 nM |
| O=C(Nc1cccc(Cl)c1)[C@@H]1CSC(c2cccnc2)N1 (stereo partly drawn) [(R)-2-Pyridin-3-yl-thiazolidine-4-carboxylic acid (3-chloro-phenyl)-amide] | 208 nM |
| Cc1nnc2n1-c1sc3c(c1C(c1ccccc1Cl)=NC2)CC(C(=O)N1CCOCC1)C3 (stereo not drawn) [6-(2-chlorophenyl)-1-methyl-8,9-dihydro-4H,7H-cyclopenta[4,5]thieno[3,2-f][1,2,4]triazolo[4,3-a][1,4]diazepin-9-yl-1,4-oxazinan-4-ylmethanone (WEB 2170)] | 29 nM |
| O=C(c1c[nH]c2cc(F)ccc12)[C@@H]1CSC(c2cccnc2)N1 (stereo partly drawn) [(6-Fluoro-1H-indol-3-yl)-((R)-2-pyridin-3-yl-thiazolidin-4-yl)-methanone] | 5.6 nM |
| CCOC(=O)Cn1cc(C(=O)[C@@H]2CSC(c3cccnc3)N2)c2ccccc21 (stereo partly drawn) [[3-((R)-2-Pyridin-3-yl-thiazolidine-4-carbonyl)-indol-1-yl]-acetic acid ethyl ester] | 1.2 nM |
| CCOC(=O)n1cc(C(=O)[C@@H]2CSC(c3cccnc3)N2)c2ccccc21 (stereo partly drawn) [3-((R)-2-Pyridin-3-yl-thiazolidine-4-carbonyl)-indole-1-carboxylic acid ethyl ester] | 4.4 nM |
| CN(C)C(=O)n1cc(C(=O)[C@@H]2CSC(c3cccnc3)N2)c2ccc(Cl)cc21 (stereo partly drawn) [6-Chloro-3-((R)-2-pyridin-3-yl-thiazolidine-4-carbonyl)-indole-1-carboxylic acid dimethylamide] | 1 nM |
| O=C(c1c[nH]c2ccccc12)[C@@H]1CS[C@@H](c2cccnc2)N1C(=O)C(F)(F)F | 7100 nM |
| O=C(c1c[nH]c2cc(-c3ccccc3)ccc12)[C@@H]1CSC(c2cccnc2)N1 (stereo partly drawn) [(6-Phenyl-1H-indol-3-yl)-((R)-2-pyridin-3-yl-thiazolidin-4-yl)-methanone] | 14 nM |
| Cc1ccc2[nH]c(C)c(C(=O)[C@@H]3CSC(c4cccnc4)N3)c2c1 (stereo partly drawn) [(2,5-Dimethyl-1H-indol-3-yl)-((R)-2-pyridin-3-yl-thiazolidin-4-yl)-methanone] | 33 nM |
| Cc1c(C(=O)[C@@H]2CSC(c3cccnc3)N2)c2ccccc2n1C(=O)OC(C)(C)C (stereo partly drawn) [2-Methyl-3-((R)-2-pyridin-3-yl-thiazolidine-4-carbonyl)-indole-1-carboxylic acid tert-butyl ester; compound with oxalic acid] | 9.5 nM |
| CNC(=O)Cn1cc(C(=O)[C@@H]2CSC(c3cccnc3)N2)c2ccccc21 (stereo partly drawn) [N-Methyl-2-[3-((R)-2-pyridin-3-yl-thiazolidine-4-carbonyl)-indol-1-yl]-acetamide] | 2.4 nM |
| Cc1ccc2c(C(=O)[C@@H]3CSC(c4cccnc4)N3)cn(C(=O)OC(C)(C)C)c2c1 (stereo partly drawn) [6-Methyl-3-((R)-2-pyridin-3-yl-thiazolidine-4-carbonyl)-indole-1-carboxylic acid tert-butyl ester] | 2.6 nM |
| Cc1ccc2c(c1)c(C(=O)[C@@H]1CSC(c3cccnc3)N1)c(C)n2C(=O)N1CCOCC1 (stereo partly drawn) [[2,5-Dimethyl-3-((R)-2-pyridin-3-yl-thiazolidine-4-carbonyl)-indol-1-yl]-morpholin-4-yl-methanone] | 36 nM |
| O=C(O)CCn1cc(C(=O)[C@@H]2CSC(c3cccnc3)N2)c2ccccc21 (stereo partly drawn) [3-[3-((R)-2-Pyridin-3-yl-thiazolidine-4-carbonyl)-indol-1-yl]-propionic acid] | 25 nM |
| COc1ccc2c(C(=O)[C@@H]3CSC(c4cccnc4)N3)c[nH]c2c1 (stereo partly drawn) [(6-Methoxy-1H-indol-3-yl)-((R)-2-pyridin-3-yl-thiazolidin-4-yl)-methanone] | 9.5 nM |
| COc1ccc2c(C(=O)[C@@H]3CSC(c4cccnc4)N3)cn(C(=O)OC(C)(C)C)c2c1 (stereo partly drawn) [6-Methoxy-3-((R)-2-pyridin-3-yl-thiazolidine-4-carbonyl)-indole-1-carboxylic acid tert-butyl ester; compound with oxalic acid] | 8.2 nM |

Continued, values first:

| Ki | Compound |
| --- | --- |
| 3 nM | COCCOc1ccc2c(C(=O)[C@@H]3CSC(c4cccnc4)N3)cn(C(=O)N(C)C)c2c1 (stereo partly drawn) [6-(2-Methoxy-ethoxy)-3-((R)-2-pyridin-3-yl-thiazolidine-4-carbonyl)-indole-1-carboxylic acid dimethylamide] |
| 13 nM | Cc1ccc2c(c1)c(C(=O)[C@@H]1CSC(c3cccnc3)N1)c(C)n2C(=O)N(C)C (stereo partly drawn) [2,5-Dimethyl-3-(2-pyridin-3-yl-thiazolidine-4-carbonyl)-indole-1-carboxylic acid dimethylamide] |
| 8.1 nM | CCS(=O)(=O)n1cc(C(=O)[C@@H]2CSC(c3cccnc3)N2)c2ccc(OCc3ccccc3)cc21 (stereo partly drawn) [(6-Benzyloxy-1-ethanesulfonyl-1H-indol-3-yl)-((R)-2-pyridin-3-yl-thiazolidin-4-yl)-methanone] |
| 77 nM | Cc1ccc2c(c1)c(C(=O)[C@@H]1CSC(c3cccnc3)N1)c(C)n2C(=O)OC(C)(C)C (stereo partly drawn) [2,5-Dimethyl-3-((R)-2-pyridin-3-yl-thiazolidine-4-carbonyl)-indole-1-carboxylic acid tert-butyl ester; compound with oxalic acid] |
| 1640 nM | O=C(c1c[nH]c2ccccc12)[C@@H]1CS[C@H](c2cccnc2)N1C(=O)C(F)(F)F |
| 13 nM | O=C(c1c[nH]c2cccc(OCc3ccccc3)c12)[C@@H]1CSC(c2cccnc2)N1 (stereo partly drawn) [(4-Benzyloxy-1H-indol-3-yl)-((R)-2-pyridin-3-yl-thiazolidin-4-yl)-methanone] |
| 9.2 nM | CN(C)C(=O)n1cc(C(=O)[C@@H]2CSC(c3cccnc3)N2)c2ccc(-c3ccc(F)cc3)cc21 (stereo partly drawn) [6-(4-Fluoro-phenyl)-3-((R)-2-pyridin-3-yl-thiazolidine-4-carbonyl)-indole-1-carboxylic acid dimethylamide] |
| 52 nM | O=C([C@@H]1CSC(c2cccnc2)N1)n1ccc2ccc(OCc3ccccc3)cc21 (stereo partly drawn) [(6-Benzyloxy-indol-1-yl)-((R)-2-pyridin-3-yl-thiazolidin-4-yl)-methanone] |
| 1.6 nM | O=C(c1c[nH]c2cc(OCc3ccccc3)ccc12)[C@@H]1CSC(c2cccnc2)N1 (stereo partly drawn) [(6-Benzyloxy-1H-indol-3-yl)-((R)-2-pyridin-3-yl-thiazolidin-4-yl)-methanone] |
| 10 nM | COc1cc2c(C(=O)[C@@H]3CSC(c4cccnc4)N3)cn(C(=O)N(C)C)c2cc1OC (stereo partly drawn) [5,6-Dimethoxy-3-((R)-2-pyridin-3-yl-thiazolidine-4-carbonyl)-indole-1-carboxylic acid dimethylamide] |
| 3 nM | O=C(c1cn(C(=O)OCc2ccccc2)c2ccccc12)[C@@H]1CSC(c2cccnc2)N1 (stereo partly drawn) [3-((R)-2-Pyridin-3-yl-thiazolidine-4-carbonyl)-indole-1-carboxylic acid benzyl ester; compound with oxalic acid] |
| 1.4 nM | CCN(CC)C(=O)n1cc(C(=O)[C@@H]2CSC(c3cccnc3)N2)c2ccccc21 (stereo partly drawn) [3-((R)-2-Pyridin-3-yl-thiazolidine-4-carbonyl)-indole-1-carboxylic acid diethylamide] |
| 2.2 nM | CN(C)C(=O)n1cc(C(=O)[C@@H]2CSC(c3cccnc3)N2)c2ccc(Oc3ccc(F)cc3)cc21 (stereo partly drawn) [6-(4-Fluoro-phenoxy)-3-((R)-2-pyridin-3-yl-thiazolidine-4-carbonyl)-indole-1-carboxylic acid dimethylamide] |
| 7.7 nM | O=C(c1ccccc1)c1cccc(NC(=O)[C@@H]2CSC(c3cccnc3)N2)c1 (stereo partly drawn) [(R)-2-Pyridin-3-yl-thiazolidine-4-carboxylic acid (3-benzoyl-phenyl)-amide] |
| 14 nM | CN(C)C(=O)n1cc(C(=O)[C@@H]2CSC(c3cccnc3)N2)c2cccc(OCc3ccccc3)c21 (stereo partly drawn) [7-Benzyloxy-3-((R)-2-pyridin-3-yl-thiazolidine-4-carbonyl)-indole-1-carboxylic acid dimethylamide] |
